Data: patent US6861441B1, “Use of EP4 receptor ligands in the treatment of neuropathic pain and colon cancer” (SmithKline Beecham Corporation, priority 1999, dated 2005)
pKi: −log10 of the molar value.

Experiments:
[1] = tested on: CCI-induced neuropathic hypersensitivity in male random hooded rats; assay: Chronic constriction injury (CCI) model of neuropathic hypersensitivity, paw withdrawal threshold; format: in vivo, rat; details: 10 mgkg-1 b.i.d. PO
Text: Under isoflurane anaesthesia, the common left sciatic nerve was exposed at mid thigh level and four loose ligatures of Chromic gut tied around it. The wound was then closed and secured using suture clips. The surgical procedure was identical for the sham operated animals except the sciatic nerve was not ligated. The rats were allowed a period of seven days to recover from the surgery before behavioural testing began.

human EP4 receptors = target: T1, human EP4 receptors (Homo sapiens, UniProt P35408); assay: Human EP4 Scintillation Proximity Assay (SPA), [3H]-prostaglandin E2 competition binding
T1 construct: expressed in transfected cells; host or cells: Chinese Hamster Ovary (CHO) cells infected with Semliki Forest Virus carrying an SFV-1 RNA construct with the hEP4 receptor; membranes were prepared from these cells
Protocol: Quantification of radioligand binding by scintillation proximity assay (SPA) is a long-established principle. Briefly, the affinity of compounds for a receptor is assessed by the specific competition between known quantities of radiolabelled ligand and compound for that receptor. Increasing concentrations of compound reduce the amount of radiolabel that binds to the receptor. This gives rise to a diminishing scintillation signal from SPA beads coated with membranes that bear the receptor. The signal may be detected with a suitable scintillation counter and the data generated may be analysed with suitable curve-fitting software.
The human EP4 SPA assay (hereafter referred to as ‘the assay’) utilises membranes prepared from Chinese Hamster Ovary (CHO cells) infected with Semliki Forest Virus (SFV). […]
For assay, membranes expressing human EP4 receptors are diluted in a pH-buffered medium and mixed with SPA beads coated with a suitable substance to facilitate the adhesion of membranes to the beads. […] Nonspecific binding (nsb) may be determined by competition between the radiolabelled ligand and a saturating concentration of unlabelled ligand. In order to quantify the affinity of EP4 receptor ligands, compounds are diluted in a stepwise manner across the wells of a 96-well plate. […] The affinity (pKi) of the compound may be calculated from the IC50 by application of the Cheng-Prusoff correction. […]

T1 sequence (P35408 whole entry): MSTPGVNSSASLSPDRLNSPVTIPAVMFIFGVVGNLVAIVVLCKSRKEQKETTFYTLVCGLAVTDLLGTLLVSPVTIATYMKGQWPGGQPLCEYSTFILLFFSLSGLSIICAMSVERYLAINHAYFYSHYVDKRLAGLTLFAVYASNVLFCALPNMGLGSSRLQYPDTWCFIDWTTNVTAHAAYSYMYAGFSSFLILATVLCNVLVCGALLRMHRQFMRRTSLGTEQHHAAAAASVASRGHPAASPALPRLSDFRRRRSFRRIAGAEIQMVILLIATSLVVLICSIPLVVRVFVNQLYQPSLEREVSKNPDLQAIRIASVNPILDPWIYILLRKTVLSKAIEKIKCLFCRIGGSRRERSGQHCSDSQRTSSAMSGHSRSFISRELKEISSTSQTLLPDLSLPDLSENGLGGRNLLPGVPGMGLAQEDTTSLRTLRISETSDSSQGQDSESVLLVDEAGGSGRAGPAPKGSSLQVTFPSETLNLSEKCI

In the case of CCOc1c2c(c(OCC)c3ccccc13)C(=O)N(c1ccc(CC(=O)O)cc1)C2 [IF, [4-(4,9-diethoxy-1-oxo-1,3-dihydro-2H-benzo[f]isoindol-2-yl)phenyl]acetic Acid], the “time of chronic dosing until reversal became apparent” value ([1]; days 20-33 postoperative) was 3 days, the “time of chronic dosing until reversal was maximal” value ([1]; days 20-33 postoperative) was 1 week and the “effect on CCI-induced decrease in paw withdrawal threshold” value ([1]; dosed chronically for 14 days (days 20-33 postoperative)) was “reversal of the CCI-induced decrease in paw withdrawal threshold”. For the same compound, the “paw withdrawal threshold following cessation of the drug treatment” value ([1]; after the 14-day dosing period) was “returned to that of the vehicle treated CCI-operated animals” and the pKi (human EP4 receptors) was 7.00.
